{"source": "patent US20090105343A1", "about": "“Cancer Therapy And Medicaments Therefor” (The University of Birmingham, priority 2004, published 2009)", "type_in_all_cases": "cell-based", "key": {"[1]": {"tested_on": "EJ-28", "assay": "Proliferation assay (ATP bioluminescence), EJ-28 bladder cancer cells", "conditions": "for Sensitivity of EJ-28 proliferation to ligand treatment: EJ-28 cells, ligand alone", "experimental": "(§1) The action of individual agents alone and in combination was examined using a bioluminescent technique to measure changes in cellular ATP (ViaLight HS, LumiTech, Nottingham, U.K.) with previously optimised conditions according to the manufacturer's instructions (Rashid, S. F. et al. Supra). Briefly, cells were plated in 96 well white-walled tissue culture-treated plates (Fisher Scientific Ltd. Loughborough, U.K.) (cancer cell lines at 2×10^3 cells/well; PrEC at 3.5×10^3 cells/well). […] After the incubation period, 100 μl of nucleotide releasing reagent was added to each well and cells were left for 30 minutes at room temperature. Liberated ATP was quantitated by adding 20 μl of ATP monitoring reagent (containing luciferin and luciferase) and measuring luminescence with a microplate luminometer (Berthold Detection Systems, Fisher Scientific Ltd.). ATP levels were recorded in relative luciferase units and growth inhibition was expressed as a percentage of control."}, "[2]": {"tested_on": "RT-4", "assay": "Proliferation assay (ATP bioluminescence), RT-4 bladder cancer cells", "conditions": "Homo sapiens; RT-4 cells, 96 h; read-out: Estimated dose required to inhibit bladder cancer cell proliferation by 50% (ED50)", "experimental": "as §1"}, "[3]": {"tested_on": "GADD45α", "assay": "GADD45α gene induction (Q-RT-PCR)", "conditions": "0.1 μM, 8 hr", "experimental": "(§2) Cells were seeded at a density of 2×10^4/cm^2 and allowed to grow for 36 h to ensure that cells were in mid-exponential phase upon treatment. Total RNA was extracted using the GenElute RNA extraction system (Sigma) according to manufacturer's instructions. Primary cultures were serially passaged and grown to 80% confluency in standard serum-free medium. Cells were fed one day prior to isolation of total RNA using the Qiagen RNeasy Midi kit (Qiagen, Palo Alto, Calif., USA).\n(§3) For real time reverse transcription-polymerase chain reaction (RT-PCR), cDNA was prepared from 1 μg of total RNA by reverse transcription with Mu-MLV (Promega Southampton, UK) at 42° C. for 60 min in the presence of 100 mM Tris-HCl, pH 9.0, 500 mM KCl and 2 mM MgCl2, 100 μM random hexamers (Pharmacia, Pisacataway, N.J.), 2 mM dNTP and 20 U RNAsin (Promega) in a 20 μl reaction volume.\n(§4) Expression of specific mRNAs was quantitated using the ABI PRISM 7700 Sequence Detection System. […]\n(§5) Data were expressed as Ct values (the cycle number at which logarithmic PCR plots cross a calculated threshold line) and used to determine δCt values (δCt=Ct of the target gene minus Ct of the housekeeping gene). […]"}, "[4]": {"tested_on": "p21^(waf1/cip1)", "assay": "Upregulation of CDKI p21(waf1/cip1)", "conditions": "2 μM", "experimental": "as §2, §3, §4, §5"}, "[5]": {"tested_on": "DU-145 cells", "assay": "Cell cycle analysis (propidium iodide flow cytometry)", "conditions": "DU-145, 1 μM, after 24 hr (ctrl 41%)", "experimental": "The effect of nuclear receptor ligands in combination with the HDAC inhibitors on the cell cycle was measured by staining DNA with propidium iodide (PI). Briefly, T25 flasks were seeded with 2.5×10^5 sub-confluent, exponentially proliferating cells, exposed to 100 nM 1α,25(OH)2D3 alone or combined with either 300 μM NaB or 15 nM TSA at times 0 (and re-dosed after 48 hours in 72 and 96 hr assays). After a total of 24, 48, 72 and 96 hours, cultures were harvested by trypsinising, counted and 1×10^6 cells were stained with PI buffer (10 μg/ml PI, 1% (w/v) tri-sodium citrate, 0.1% (v/v) Triton X-100, 100 μM sodium chloride (Sigma)). Cell cycle distribution was determined using a Becton-Dickinson Flow Cytometer and CellFIT Cell-Cycle Analysis software."}, "[6]": {"tested_on": "prostate cancer cell lines", "assay": "Proliferation assay (ATP bioluminescence), prostate cancer cell lines, single agents and combinations", "experimental": "as §1\nThe interactions of two compounds were assessed by measuring the mean of either the nuclear receptor ligand or the HDAC inhibitor acting alone or in combination. The mean observed combined effect was compared to the individual effects of the agents added together, using the Student's t-test. […] All other analyses were also compared using the Student's t-test."}, "[7]": {"tested_on": "GADD45α", "assay": "GADD45α induction in PC-3 cells after SMRT knock down", "conditions": "SMRT knocked down by RNAi", "excerpt": "SIRNA fragments (22mers) were generated in vitro using a Dicer generation system according to the manufacturer's protocol (Gene Therapy Systems, San Diego, Calif.). Briefly, a 650 bp region from the human SMRT gene sequence corresponding to 112 to 762 was amplified using the following primers containing T7 promoter sequences;\nFS: 5′-[…]-3′ and RV: 5′-[…]-3′. This was subsequently cloned into the pGEM T easy vector (Promega), using the multiple cloning sites to allow for sequencing, large scale harvest. Digestion with ECoR1 released a pure concentrated template for in vitro […] with primers containing T7 recognition sequences to generate double stranded mRNA. This was subsequently cleaved with recombinant human Dicer enzyme to generate a pool of 22mers which cover the region targeted in the 5′prime region of the SMRT gene. Five hundred ng of purified double stranded RNA 22mers were transfected into each well (2×10^5 cells/well in 24-well plates) for 12 hrs. Cells were then left for a further 72 hr to allow gene silencing and subsequently treated with 1α,25(OH)2D3 (100 nM) for 6 hr and total RNA was harvested and Q-RT-PCR for SMRT and target genes was undertaken as above."}}, "note": "Entries after “also recorded” stand apart in the source; their conditions may differ.", "data": [{"compound": "C[C@H](CCC(=O)O)[C@H]1CC[C@H]2[C@@H]3[C@H](O)C[C@@H]4C[C@H](O)CC[C@]4(C)[C@H]3CC[C@]12C", "note": "[CDA, chenodeoxycholic acid]", "values": [{"measurement": "ligand action in EJ-28 cells on co-treatment with SAHA", "setting": "[1]; EJ-28, co-treatment with SAHA", "result": "restored the actions"}, {"measurement": "Sensitivity of EJ-28 proliferation to ligand treatment", "setting": "[1]", "result": "insensitive"}, {"measurement": "EC50", "setting": "[2]", "result": 11, "unit": "µM"}]}, {"compound": "O=C(CCCCCCC(=O)Nc1ccccc1)NO", "note": "[SAHA, Suberoylanilide hydroxamic acid]", "values": [{"measurement": "GADD45α induction, individual agent alone", "setting": "[3]", "result": "not significant"}, {"measurement": "upregulation of the CDKI p21(waf1/cip1)", "setting": "[4]", "result": "potent and immediate upregulation"}, {"measurement": "cells in G1", "setting": "[5]", "result": 64, "unit": "%"}]}, {"compound": "C=C1/C(=C\\C=C2/CCC[C@]3(C)[C@@H]([C@H](C)CCCC(C)(C)O)CC[C@@H]23)C[C@@H](O)C[C@@H]1O", "note": "[Vit D, 1α,25-dihydroxyvitamin D3]", "values": [{"measurement": "Sensitivity of EJ-28 proliferation to ligand treatment", "setting": "[1]", "result": "insensitive"}, {"measurement": "interaction of the ligand with SAHA on proliferation", "setting": "[6]; co-treatment with SAHA, listed as 1α,25(OH)2D3", "result": "did not appear to extend; also recorded: does not"}, {"measurement": "augmentation of the ligand's action by TSA", "setting": "[6]; co-treatment with TSA", "result": "augments"}, {"measurement": "GADD45α induction by ligand alone after SMRT knock down", "setting": "[7]", "result": "very strongly enhanced"}]}]}
